Experimental data published in patent publication US11845735B2, “Method for synthesizing (RS)-Warfarin” (priority 2021, dated 2023).

What was measured:
[1] = test system: extrinsic and common coagulation pathways; assay: prothrombin time (PT) test in rats after oral feeding; assay type: in vivo; details: male rats; for International Normalized Ratio / Prothrombin Time: 5 mg/kg fed, blood collected after 24 hours, citrated plasma
Protocol: In this example, the anticoagulation effect of an exemplary (RS)-Warfarin was evaluated by an exemplary prothrombin time (PT) test. PT test may refer to an exemplary method carried out for monitoring oral anticoagulant therapy. PT test may measure the period of time it takes for a clot to form in a blood sample. In particular, PT test may measure the activity of exemplary coagulation factors involved in one or more exemplary extrinsic and common coagulation pathways. In one or more exemplary embodiments, prothrombin time may increase in response to inhibition of vitamin K-dependent procoagulant clotting factors (i.e., exemplary factors VII and X and prothrombin).
(§1) In an exemplary implementation, PT test may be accomplished in an animal model and may be compared to an exemplary commercial sample of Warfarin. In an exemplary implementation, 24 male rats were randomly separated into four groups, six rats in each group. Group I received distilled water (Control Group), Group II received an exemplary commercial Warfarin with an exemplary dose of 5 mg commercial Warfarin per weight of each rat (5 mg/kg), Group III received an exemplary synthesized (RS)-Warfarin with an exemplary dose of 5 mg (RS)-Warfarin per weight of each rat (5 mg/kg (Dose 1)), and Group IV received synthesized (RS)-Warfarin with an exemplary dose of 10 mg (RS)-Warfarin per weight of each rat (10 mg/kg (Dose 2)).
In an exemplary implementation, PT test was performed by feeding exemplary commercial Warfarin and Dose 1 of exemplary synthesized (RS)-Warfarin to Group II and Group III of rats, respectively. After 24 hours, exemplary blood samples were collected from two rats that were randomly selected from each of Group II and Group III. About 1.8 ml of each blood sample was added to exemplary tubes containing an exemplary anticoagulant, sodium citrate dihydrate. After centrifugation of each citrated blood sample at 2000 gr for 15 minutes, plasma was separated to be used for PT analysis. In an exemplary implementation, PT test may be performed by adding a mixture of thromboplastin and calcium to citrated plasma. Thromboplastin is a protein-phospholipid extract of tissue that may contain necessary phospholipids and tissue factors for promoting activation of factor X by factor VII. At the beginning of an exemplary anticoagulant therapy (e.g., Warfarin therapy), prothrombin time may reflect an exemplary depression of factor VII, because factor VII may have the shortest half-life among exemplary vitamin K-dependent factors. During an exemplary maintenance therapy, PT test may be sensitive to the decrease in prothrombin and factor X levels. PTs and international normalized ratios (INRs) were measured for Group II and Group III of rats.

[2] = clinical chemistry tests for toxicity (urea, creatinine, SGOT, SGPT, LDH) in rats; assay type: in vivo; details: 5 mg/kg (Dose 1) and 10 mg/kg (Dose 2) vs commercial Warfarin 5 mg/kg, blood after 24 hours
Protocol: as §1
In this example, toxicity of exemplary (RS)-Warfarin was assessed using one or more exemplary clinical chemistry tests, such as urea test, creatinine test, SGOT (glutamic oxaloacetic transaminase) test, SGPT (glutamate-pyruvate transaminase) test, and LDH (lactate dehydrogenase) test. In an exemplary implementation, Group II, Group III, and Group IV of rats were fed with exemplary commercial Warfarin, Dose 1 of exemplary synthesized (RS)-Warfarin, and Dose 2 of exemplary synthesized (RS)-Warfarin, respectively. […]

| Structure (SMILES) | International Normalized Ratio [1] | Prothrombin Time [1] | urea, creatinine, SGOT, SGPT and LDH test results compared to rats fed with commercial Warfarin (FIG. 8) [2] | anticoagulant effect in comparison to commercial Warfarin (PTs and INRs) ([1]; 5 mg/kg each, 24 hours) |
| --- | --- | --- | --- | --- |
| CC(=O)CC(c1ccccc1)c1c(O)c2ccccc2oc1=O (stereo not drawn) [Exemplary Commercial Warfarin, Warfarin] | 2.19 | 18.6 s | – | – |
| CC(=O)CC(c1ccccc1)c1c(O)c2ccccc2oc1=O (racemic) [Exemplary Synthesized (RS)-Warfarin, 4-hydroxy-3-(3-oxo-1-phenylbutyl)-2H-1-benzopyran-2-one] | 3.4 | 24.4 s | may not significantly differ | significantly increased anticoagulant effect |
